Data published in patent publication US10670605B2, “Cysteine reactive probes and uses thereof” (The Scripps Research Institute, priority 2015, dated 2020).

Tests used:
Test in all cases: Competitive isoTOP-ABPP in situ (fragment-treated cells)
Format in all cases: cell-based
[1] = target: T1, cysteines in MDA-MB-231 and Ramos cells (Homo sapiens, UniProt Q96RS6)
T1 sequence (Q96RS6 1-583): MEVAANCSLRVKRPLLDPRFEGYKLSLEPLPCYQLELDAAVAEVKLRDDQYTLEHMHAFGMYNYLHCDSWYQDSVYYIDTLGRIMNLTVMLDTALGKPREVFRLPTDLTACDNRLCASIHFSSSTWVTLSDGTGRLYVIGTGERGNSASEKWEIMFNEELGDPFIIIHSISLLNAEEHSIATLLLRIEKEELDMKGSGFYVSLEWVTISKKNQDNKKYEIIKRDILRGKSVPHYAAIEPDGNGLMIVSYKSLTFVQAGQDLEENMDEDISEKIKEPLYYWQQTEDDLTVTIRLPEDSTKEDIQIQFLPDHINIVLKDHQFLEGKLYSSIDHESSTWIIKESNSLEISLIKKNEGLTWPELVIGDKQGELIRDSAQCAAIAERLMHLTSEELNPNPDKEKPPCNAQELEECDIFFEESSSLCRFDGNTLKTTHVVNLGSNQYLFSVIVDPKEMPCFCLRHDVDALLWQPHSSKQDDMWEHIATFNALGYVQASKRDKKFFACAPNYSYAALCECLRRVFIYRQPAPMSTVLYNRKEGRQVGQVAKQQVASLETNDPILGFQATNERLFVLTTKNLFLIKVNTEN

[2] = target: T2, cysteines in MDA-MB-231 and Ramos cells (Homo sapiens, UniProt P51649); conditions: 200 μM, insitu
T2 sequence (P51649 48-535): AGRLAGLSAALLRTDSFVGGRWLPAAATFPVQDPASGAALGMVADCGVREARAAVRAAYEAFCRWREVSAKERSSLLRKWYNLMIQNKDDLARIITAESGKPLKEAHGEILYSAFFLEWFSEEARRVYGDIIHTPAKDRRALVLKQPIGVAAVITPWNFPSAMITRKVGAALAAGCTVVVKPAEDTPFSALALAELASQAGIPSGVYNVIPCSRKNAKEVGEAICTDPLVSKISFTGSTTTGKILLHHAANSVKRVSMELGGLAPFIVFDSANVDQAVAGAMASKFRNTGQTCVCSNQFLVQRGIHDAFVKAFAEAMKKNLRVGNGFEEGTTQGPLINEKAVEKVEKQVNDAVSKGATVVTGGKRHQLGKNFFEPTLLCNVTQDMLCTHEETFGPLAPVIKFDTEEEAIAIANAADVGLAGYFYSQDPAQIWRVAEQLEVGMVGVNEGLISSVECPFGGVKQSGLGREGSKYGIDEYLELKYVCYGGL

[3] = target: T3, cysteines in MDA-MB-231 and Ramos cells (Homo sapiens, UniProt O00244)
T3 sequence (O00244 1-68): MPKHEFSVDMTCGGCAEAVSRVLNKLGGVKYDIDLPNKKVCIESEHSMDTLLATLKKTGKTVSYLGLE

[4] = target: cysteines in MDA-MB-231 and Ramos cells (Homo sapiens, UniProt Q14790); conditions: 200 μM, insitu, 231
[5] = target: cysteines in MDA-MB-231 and Ramos cells (Homo sapiens, UniProt P51610)
[6] = target: T4, cysteines in MDA-MB-231 and Ramos cells (Homo sapiens, UniProt A0AVT1)
T4 sequence (A0AVT1 1-1052): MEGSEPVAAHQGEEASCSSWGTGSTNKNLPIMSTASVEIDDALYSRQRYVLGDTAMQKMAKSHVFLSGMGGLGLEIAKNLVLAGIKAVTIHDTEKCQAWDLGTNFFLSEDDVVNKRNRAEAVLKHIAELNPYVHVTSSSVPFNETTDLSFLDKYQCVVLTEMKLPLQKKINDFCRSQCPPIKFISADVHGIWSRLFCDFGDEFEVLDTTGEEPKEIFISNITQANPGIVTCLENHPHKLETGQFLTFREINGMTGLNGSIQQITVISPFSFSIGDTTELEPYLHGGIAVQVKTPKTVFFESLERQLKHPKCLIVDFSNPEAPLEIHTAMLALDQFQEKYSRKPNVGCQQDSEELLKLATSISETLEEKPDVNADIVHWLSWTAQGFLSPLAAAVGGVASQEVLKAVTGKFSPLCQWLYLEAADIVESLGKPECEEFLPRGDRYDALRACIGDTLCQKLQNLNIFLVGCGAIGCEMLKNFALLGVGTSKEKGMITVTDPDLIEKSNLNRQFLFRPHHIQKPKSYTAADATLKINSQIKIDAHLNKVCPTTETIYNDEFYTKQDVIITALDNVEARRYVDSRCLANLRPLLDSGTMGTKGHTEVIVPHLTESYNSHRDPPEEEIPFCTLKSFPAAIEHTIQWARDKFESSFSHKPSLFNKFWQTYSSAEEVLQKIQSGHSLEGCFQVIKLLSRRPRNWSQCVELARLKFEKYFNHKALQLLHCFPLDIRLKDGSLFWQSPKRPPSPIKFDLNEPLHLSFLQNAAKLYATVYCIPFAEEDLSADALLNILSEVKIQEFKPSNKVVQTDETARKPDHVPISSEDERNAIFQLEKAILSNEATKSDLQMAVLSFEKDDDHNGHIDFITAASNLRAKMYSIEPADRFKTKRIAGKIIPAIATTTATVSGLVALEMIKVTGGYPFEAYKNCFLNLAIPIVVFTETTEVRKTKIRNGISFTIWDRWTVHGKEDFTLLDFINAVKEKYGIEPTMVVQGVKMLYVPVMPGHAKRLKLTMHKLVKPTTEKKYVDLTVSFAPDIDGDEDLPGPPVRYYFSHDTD

[7] = target: T5, cysteines in MDA-MB-231 and Ramos cells (Homo sapiens, UniProt Q15013)
T5 sequence (Q15013 1-274): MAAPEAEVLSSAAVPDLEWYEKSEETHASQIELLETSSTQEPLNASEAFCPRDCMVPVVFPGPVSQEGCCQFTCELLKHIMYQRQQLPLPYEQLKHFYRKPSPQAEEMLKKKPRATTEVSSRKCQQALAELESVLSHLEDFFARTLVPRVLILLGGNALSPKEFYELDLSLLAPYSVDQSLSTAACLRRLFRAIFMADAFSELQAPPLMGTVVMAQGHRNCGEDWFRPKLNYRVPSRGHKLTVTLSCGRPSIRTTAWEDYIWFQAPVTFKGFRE

[8] = target: cysteines in MDA-MB-231 and Ramos cells (Homo sapiens, UniProt P51812)
cysteines in MDA-MB-231 and Ramos cells (Homo sapiens, UniProt P51812), sequence (P51812 whole entry): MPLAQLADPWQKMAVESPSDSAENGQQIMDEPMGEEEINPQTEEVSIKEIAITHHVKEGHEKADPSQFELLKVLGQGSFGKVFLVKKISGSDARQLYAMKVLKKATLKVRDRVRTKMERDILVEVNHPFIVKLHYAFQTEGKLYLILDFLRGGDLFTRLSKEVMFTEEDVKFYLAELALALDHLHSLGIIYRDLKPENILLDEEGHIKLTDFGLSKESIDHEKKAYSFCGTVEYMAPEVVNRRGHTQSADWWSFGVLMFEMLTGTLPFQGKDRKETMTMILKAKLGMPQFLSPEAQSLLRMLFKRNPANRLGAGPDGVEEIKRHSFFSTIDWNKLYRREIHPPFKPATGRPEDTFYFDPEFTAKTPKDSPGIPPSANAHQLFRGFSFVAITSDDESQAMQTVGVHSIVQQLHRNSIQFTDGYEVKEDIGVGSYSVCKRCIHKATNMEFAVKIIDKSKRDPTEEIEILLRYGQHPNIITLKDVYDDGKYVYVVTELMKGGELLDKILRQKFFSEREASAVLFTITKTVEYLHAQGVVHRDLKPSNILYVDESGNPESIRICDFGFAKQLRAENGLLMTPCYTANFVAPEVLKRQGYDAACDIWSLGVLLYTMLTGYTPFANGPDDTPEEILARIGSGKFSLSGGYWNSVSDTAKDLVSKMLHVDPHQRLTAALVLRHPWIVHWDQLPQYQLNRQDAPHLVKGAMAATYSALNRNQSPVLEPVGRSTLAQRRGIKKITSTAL

cysteines in MDA-MB-231 and Ramos cells (Homo sapiens, UniProt Q14790), sequence (Q14790 217-479): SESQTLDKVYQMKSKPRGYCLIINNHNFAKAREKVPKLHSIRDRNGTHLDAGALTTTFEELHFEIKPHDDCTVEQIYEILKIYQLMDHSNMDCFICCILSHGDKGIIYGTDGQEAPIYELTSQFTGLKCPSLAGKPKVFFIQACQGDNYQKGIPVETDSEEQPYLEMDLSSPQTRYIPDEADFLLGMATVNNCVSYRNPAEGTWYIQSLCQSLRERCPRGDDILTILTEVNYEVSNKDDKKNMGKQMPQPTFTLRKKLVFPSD
cysteines in MDA-MB-231 and Ramos cells (Homo sapiens, UniProt P51610), sequence (P51610 whole entry): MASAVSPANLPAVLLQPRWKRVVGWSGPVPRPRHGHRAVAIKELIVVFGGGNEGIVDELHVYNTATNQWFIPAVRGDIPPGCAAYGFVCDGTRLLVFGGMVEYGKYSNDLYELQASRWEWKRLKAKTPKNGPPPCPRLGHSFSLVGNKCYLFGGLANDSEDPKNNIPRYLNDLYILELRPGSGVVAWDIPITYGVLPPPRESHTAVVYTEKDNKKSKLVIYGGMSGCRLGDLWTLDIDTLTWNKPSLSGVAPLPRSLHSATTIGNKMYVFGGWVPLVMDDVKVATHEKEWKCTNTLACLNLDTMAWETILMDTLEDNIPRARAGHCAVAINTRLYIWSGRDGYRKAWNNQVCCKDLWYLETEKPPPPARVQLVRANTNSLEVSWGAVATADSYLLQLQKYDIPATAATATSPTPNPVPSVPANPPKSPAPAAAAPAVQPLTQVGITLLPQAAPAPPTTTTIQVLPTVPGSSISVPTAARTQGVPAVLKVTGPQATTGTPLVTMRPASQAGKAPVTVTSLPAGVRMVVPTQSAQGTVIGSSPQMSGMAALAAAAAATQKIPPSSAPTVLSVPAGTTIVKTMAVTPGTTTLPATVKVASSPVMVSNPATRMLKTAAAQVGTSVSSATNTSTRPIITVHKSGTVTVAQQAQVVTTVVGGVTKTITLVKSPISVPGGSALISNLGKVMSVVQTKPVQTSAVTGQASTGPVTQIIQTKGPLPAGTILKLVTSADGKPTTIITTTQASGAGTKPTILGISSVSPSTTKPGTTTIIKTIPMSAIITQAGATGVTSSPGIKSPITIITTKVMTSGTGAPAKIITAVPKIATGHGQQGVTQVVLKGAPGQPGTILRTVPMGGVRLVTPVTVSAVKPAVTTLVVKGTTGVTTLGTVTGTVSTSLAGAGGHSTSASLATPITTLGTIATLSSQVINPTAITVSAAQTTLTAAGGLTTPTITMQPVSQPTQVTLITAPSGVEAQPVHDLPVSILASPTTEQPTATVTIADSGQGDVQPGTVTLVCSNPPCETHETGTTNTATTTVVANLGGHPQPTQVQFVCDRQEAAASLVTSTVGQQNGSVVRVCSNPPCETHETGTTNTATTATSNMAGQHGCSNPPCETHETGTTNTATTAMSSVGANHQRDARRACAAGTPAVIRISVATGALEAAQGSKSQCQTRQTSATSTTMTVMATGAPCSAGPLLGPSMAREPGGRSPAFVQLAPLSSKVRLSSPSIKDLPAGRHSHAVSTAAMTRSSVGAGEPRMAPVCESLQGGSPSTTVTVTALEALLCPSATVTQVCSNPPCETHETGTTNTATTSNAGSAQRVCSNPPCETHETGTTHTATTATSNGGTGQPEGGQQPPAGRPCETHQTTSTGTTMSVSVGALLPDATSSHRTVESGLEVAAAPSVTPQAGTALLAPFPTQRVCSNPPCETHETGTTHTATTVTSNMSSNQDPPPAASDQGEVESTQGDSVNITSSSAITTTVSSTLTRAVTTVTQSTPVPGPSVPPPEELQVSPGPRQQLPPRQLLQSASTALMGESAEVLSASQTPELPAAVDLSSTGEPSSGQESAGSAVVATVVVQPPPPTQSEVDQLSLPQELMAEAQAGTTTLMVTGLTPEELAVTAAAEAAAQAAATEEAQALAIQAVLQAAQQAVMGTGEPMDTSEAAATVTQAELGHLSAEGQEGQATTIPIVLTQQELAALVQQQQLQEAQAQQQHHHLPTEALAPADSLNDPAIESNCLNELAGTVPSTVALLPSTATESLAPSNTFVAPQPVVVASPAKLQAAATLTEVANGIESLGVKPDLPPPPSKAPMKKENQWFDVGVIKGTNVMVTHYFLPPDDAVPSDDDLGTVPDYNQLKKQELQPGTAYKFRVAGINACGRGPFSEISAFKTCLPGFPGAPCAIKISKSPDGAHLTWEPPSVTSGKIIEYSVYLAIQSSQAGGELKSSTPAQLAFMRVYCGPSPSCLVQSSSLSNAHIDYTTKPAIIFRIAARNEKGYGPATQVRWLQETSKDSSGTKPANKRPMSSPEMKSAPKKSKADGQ

## O=C(CCl)NC12CC3CC(CC(C3)C1)C2 [compound 21]
[1]; 200 μM, insitu, 231
  isoTOP-ABPP ratio Q96RS6_C376: 1.4
[2]; 231
  isoTOP-ABPP ratio P51649_C340: 1.2
[3]; 200 μM, insitu, 231
  isoTOP-ABPP ratio, cysteine O00244_C12: 0.7
[4]
  isoTOP-ABPP ratio Q14790_C360: 0.9

## COc1ccc2c(c1)CCCN2C(=O)CCl [compound 2]
[2]; 231
  isoTOP-ABPP reactivity P51649_C340 ALDH5A1: 1.9
[5]; 200 μM, insitu, 231
  isoTOP-ABPP reactivity P51610_C1872 HCFC1: 4.1
[4]
  isoTOP-ABPP reactivity Q14790_C360 CASP8: 20.0

## Cn1cc(S(=O)(=O)N2CCOCC2)cc1C(=O)NC(=O)CCl [compound 11]
[6]; 100 μM in situ 231
  isoTOP-ABPP ratio, cysteine A0AVT1_C347: 1.6
[1]; 100 μM in situ 231
  isoTOP-ABPP ratio Q96RS6_C376: 0.8
[7]; 100 μM in situ 231
  isoTOP-ABPP ratio, cysteine Q15013_C124: 1.0
[8]; 100 μM in situ 231
  isoTOP-ABPP ratio, cysteine P51812_C436: 0.5
[3]; 100 μM in situ 231
  isoTOP-ABPP ratio, cysteine O00244_C12: 0.7
[5]; 100 μM in situ 231
  isoTOP-ABPP ratio, cysteine P51610_C1872: 0.5

## COc1ccccc1OCCNC(=O)CCl [compound 28]
[7]; 200 μM, insitu, 231
  isoTOP-ABPP ratio Q15013_C124: 1.0

## O=C(CCl)NCCc1c[nH]c2ccccc12 [compound 13]
[6]; 200 μM, insitu, 231
  isoTOP-ABPP ratio, cysteine A0AVT1_C347: 1.3
[1]; 200 μM, insitu, 231
  isoTOP-ABPP ratio Q96RS6_C376: 0.7
[1]; 200 μM, insitu, ramos
  isoTOP-ABPP ratio Q96RS6_C376: 1.2
[2]; 231
  isoTOP-ABPP ratio P51649_C340: 1.1
[2]; ramos
  isoTOP-ABPP ratio P51649_C340: 1.3
[8]; 200 μM, insitu, 231
  isoTOP-ABPP ratio, cysteine P51812_C436: 1.0
[3]; 200 μM, insitu, 231
  isoTOP-ABPP ratio, cysteine O00244_C12: 1.5
[5]; 200 μM, insitu, 231
  isoTOP-ABPP ratio, cysteine P51610_C1872: 1.0
[4]
  isoTOP-ABPP ratio Q14790_C360: 1.2

## Cc1ccc(C=C(C#N)C(=O)NCCN2CCOCC2)cc1 [compound 41]
[6]; 200 μM, insitu, 231
  isoTOP-ABPP ratio A0AVT1_C347: 0.6
[1]; 200 μM, insitu, 231
  isoTOP-ABPP ratio Q96RS6_C376: 0.7
[8]; 200 μM, insitu, 231
  isoTOP-ABPP ratio P51812_C436: 4.5
[5]; 200 μM, insitu, 231
  isoTOP-ABPP ratio P51610_C1872: 0.5
[4]
  isoTOP-ABPP ratio Q14790_C360: 0.5

## C=CC(=O)Nc1cc(F)c(N2CCN(C(=O)OC(C)(C)C)CC2)c(F)c1 [compound 38]
[1]; 200 μM, insitu, 231
  isoTOP-ABPP ratio Q96RS6_C376: 1.3
[5]; 200 μM, insitu, 231
  isoTOP-ABPP ratio P51610_C1872: 1.3
[4]
  isoTOP-ABPP ratio Q14790_C360: 1.0

## C=CC(=O)N(Cc1cccnc1)c1cc(C(F)(F)F)cc(C(F)(F)F)c1 [compound 31]
[6]; 200 μM, insitu, ramos
  isoTOP-ABPP ratio A0AVT1_C347: 1.9
[1]; 200 μM, insitu, 231
  isoTOP-ABPP ratio Q96RS6_C376: 0.8
[2]; ramos
  isoTOP-ABPP ratio P51649_C340: 1.0
[4]
  isoTOP-ABPP ratio Q14790_C360: 0.5

## COc1cc2c(cc1OC)CN(C(=O)CCl)CC2 [compound 8]
[2]; 231
  isoTOP-ABPP reactivity P51649_C340 ALDH5A1: 2.7
[7]; 200 μM, insitu, 231
  isoTOP-ABPP reactivity Q15013_C124 MAD2L1BP: 5.4
